The record followed here is patent US7858658B2, “Fluoro- and trifluoroalkyl-containing heterocyclic sulfonamide inhibitors of beta amyloid production and derivatives thereof” (Wyeth LLC, priority 2003, dated 2010).

Data set [1] in a line: Phase 1 and 2 rat liver microsome metabolism. The format is in vitro ADME. Conditions: liver microsomes, read-out: half-life (metabolic stability). A general note: Liver microsomes are a subcellular fraction often used to study metabolism.
The nature of data set [2]: Phase 1 and 2 mouse liver microsome metabolism. The settings on record: liver microsomes, read-out: half-life (metabolic stability). The format is in vitro ADME.
The nature of data set [3]: Phase 1 and 2 dog liver microsome metabolism. Conditions: liver microsomes, read-out: half-life (metabolic stability). The format is in vitro ADME.
The subject of data set [4] is amyloid precursor protein (APP) proteolysis. The data set is described as follows: Repressor Release Assay (RRA). The settings on record: all compounds tested at 20 μg/mL; for fold induction at 20 µg/mL: read-out: RRA data: fold increase of APPI (luciferase activity over diluent control). The format is cell-based. On the procedure:
The beta amyloid inhibitory activity of many of the compounds of the present invention has been determined using the Repressor Release Assay (RRA). See, Table 5 below. A compound is considered active in RRA if it leads to at least a 1.5 fold increase in luciferase activity at 20 μg/mL and is non-toxic.
The compounds generated as described in the Examples above are tested in the RRA in accordance with published techniques [Shuey, D. J., Sheiffele, P., Jones, D., Cockett, M. I., and Quinet, E. M. (1999), “Repressor release: a useful tool for monitoring amyloid precursor protein (APP) proteolysis in mammalian cells”, Society for Neuroscience Abstracts, Vol. 25, 29th Annual Meeting of Society for Neuroscience, Miami Beach, Fla., Oct. 23-28, 1999]. Briefly, this assay is performed as follows.
CHO-K1 cells are cultured in whole DMEM media (DMEM—High Glucose with 10% fetal bovine serum, 1% Non-essential Amino Acids, and 1% Penicillin-Streptomycin) at 37° C. with 5% CO2. Two million cells are plated into 10-cm dishes 24 hrs prior to transfection.
Transient transfections are completed as recommended by Gibco BRL using their Lipofectamine Plus® system. First, 6 μg of pRSVO-luc and 6 μg of APP-lacI construct DNA are added to 460 μL Opti-Mem transfection media and incubated with the 30 μL Plus® reagent for 15 minutes. Then, a lipid mixture of 40 μL Lipofectamine Plus® reagent and 460 μL Opti-Mem transfection media is incubated with the DNA-Plus reagent mixture for 15 minutes. During the DNA-lipid incubation, the CHO-K1 cells are washed once and covered in 5.0 mL DMEM media without Penicillin-Streptomycin. The DNA-lipid preparation is then layered onto these cells and incubated at 37° C. overnight.
One and one half million transfected cells per well (100 μL total volume) are plated into sterile, opaque Packard 96-well Cultur-Plates™ in clear DMEM whole media (DMEM—without phenol red) and incubated at 37° C. with 5% CO2 for 3-5 hours.
Compounds are diluted using two different protocols; one protocol is used for compounds supplied neat (weighed powder in vial) and the other protocol is used for compounds supplied in solution (20 mM in DMSO in 96-well plates). For both protocols, 25 mM Hepes and 25 mM Hepes/1% DMSO are prepared fresh to be used as diluent. The Hepes/DMSO is used as the diluent control on all experimental plates.
The following table depicts the steps for compound dilution (please note that the last step is the addition of compound to cells/media in tissue culture plate):
Because some compounds arrive in 96-well format at 20 mM, the following represents the protocol for their dilution (note that an average molecular weight of these compounds was used to calculate these dilutions and as above, the last step is the addition of compound to cells/media in tissue culture plate):
Once compounds are diluted, they are applied in duplicate on cells in tissue culture plates (prepared above). Cells are incubated with compound at 37° C. with 5% CO2 for an additional 36-48 hours.
Luciferase assays (the LucLite® reagent, Packard) are performed and are read on a Packard TopCount® instrument. Media is removed from each 96-well plate and replaced with 100 μL PBS per well (with Mg^2+ and Ca^2+). An equal volume (100 μL) of the LucLite® lysis/substrate buffer is added to each well and the plates are sealed and mixed in the dark on a rotary shaker for about 15 to about 30 minutes at room temperature. Luciferase readings are then taken on the TopCount® instrument. Measurements are expressed as relative light units (RLU) and are calculated and analyzed in the MS Excel® program as follows.
A compound is considered active in RRA if it leads to at least a 1.5 fold increase in luciferase activity at 20 μg/mL and is non-toxic, as determined by loss of signal (≦0.75 fold increase). Fold increase is the amount of luciferase activity (measured in relative light units) over diluent control. SEM represents the standard error of the mean for fold increase (not shown).

A short description of another data set: in vitro. Conditions: rat, microsomes.
Data set [5] can be described thus: Phase 1 and 2 human liver microsome metabolism. It counts as in vitro ADME. Conditions: liver microsomes, read-out: half-life (metabolic stability).
The conditions of data set [6]: mouse, microsomes.

Several values for one entry are separate records, joined by “and”; a condition that tells them apart may be missing. Identical values can stand only once.

With `C[C@H](CC(F)(F)F)[C@@H](CO)NS(=O)(=O)c1ccc(Cl)s1` [Example 1, 5-Chloro-N-[(1S,2R)-4,4,4-trifluoro-1-(hydroxymethyl)-2-methylbutyl]thiophene-2-sulfonamide], the melting point is 132 to 133 °C and 136 to 137 °C. Moreover, in data set [1], the half-life was found to be 14 min. Further, the half-life in data set [2] came out at 10 min. Besides, the half-life in data set [3] was found to be 31 min. The fold induction at 20 µg/mL in data set [4] was 3.2. Moreover, the half-life in “in vitro” was around 193 min. Besides, in data set [5], the half-life was 22 min.

With `CC[C@H](CC(F)(F)F)[C@@H](CO)NS(=O)(=O)c1ccc(Cl)s1` [Example 2, 5-Chloro-N-[(1S,2R)-2-ethyl-4,4,4-trifluoro-1-(hydroxymethyl)butyl]thiophene-2-sulfonamide], the melting point fell in the range of 128 to 129 °C. The fold induction at 20 µg/mL in data set [4] is 5.4.

With `CC[C@H](CC(F)(F)F)[C@H](NS(=O)(=O)c1ccc(Cl)s1)C(C)O` (stereo partly drawn) [Example 3, 5′-Chloro-N-[(1S,2R)-2-ethyl, 4,4,4-trifluoro-1-(1-hydroxyethyl)butyl]thiophene-2′-sulfonamide], in data set [4], the “RRA data: fold increase of APPI (luciferase activity over diluent control)” value (shortened to “RRA data: fold increase of APPI”) is on record as 4.3 fold increase.

Turning to `O=S(=O)(NC(CO)C(C(F)(F)F)C(F)(F)F)c1ccc(Cl)s1` (stereo not shown) [Example 4, 5′-Chloro-N-[3,3,3-trifluoro-2-(trifluoromethyl)-1-(hydroxymethyl)propyl]thiophene-2′-sulfonamide], the “RRA data: fold increase of APPI” value in data set [4] is listed as 3.7 fold increase.

For `O=S(=O)(N[C@H](CO)C(C(F)(F)F)C(F)(F)F)c1ccc(Cl)s1` [Example 5, 5′-Chloro-N-[3,3,3-trifluoro-2-(trifluoromethyl)-1-S-(hydroxymethyl)propyl]thiophene-2′-sulfonamide], the “half-life (metabolic stability)” value in data set [6] is given as 46 min. For the same compound, in data set [4], the “RRA data: fold increase of APPI” value was found to be 3.8 fold increase.

With `CC[C@@H](CC(F)(F)F)[C@H](CO)NS(=O)(=O)c1ccc(Cl)s1` [Example 6, 5-Chloro-N-[(1R,2S)-2-ethyl-4,4,4-trifluoro-1-(hydroxymethyl)butyl]thiophene-2-sulfonamide], in data set [4], the fold induction at 20 µg/mL came out at 4.2.

Take `O=S(=O)(NC(CO)CCC(F)(F)F)c1ccc(Cl)s1` (stereo not shown) [Example 7, 5-Chloro-N-[4,4,4-trifluoro-1-(hydroxymethyl)butyl]thiophene-2-sulfonamide]: the fold induction at 20 µg/mL in data set [4] worked out at 3.9.

Turning to `C[C@H](O)[C@@H](NS(=O)(=O)c1ccc(Cl)s1)[C@H](C)CC(F)(F)F` [Example 8, 5-Chloro-N-{(1S,2R)-4,4,4-trifluoro-1-[(1S)-1-hydroxyethyl]-2-methylbutyl}thiophene-2-sulfonamide], the fold induction at 20 µg/mL in data set [4] came out at 2.8.

In the case of `C[C@H](CC(F)(F)F)[C@H](NS(=O)(=O)c1ccc(Cl)s1)[C@@H](C)O` [Example 9, 5-Chloro-N-{(1S,2R)-4,4,4-trifluoro-1-[(1R)-1-hydroxyethyl]-2-methylbutyl}thiophene-2-sulfonamide], the fold induction at 20 µg/mL in data set [4] turned out to be 2.8.

Consider `C[C@@H](CC(F)(F)F)[C@@H](CO)NS(=O)(=O)c1ccc(Cl)s1` [Example 10, 5-Chloro-N-[(1S,2S)-4,4,4-trifluoro-1-(hydroxymethyl)-2-methylbutyl]thiophene-2-sulfonamide], for which the melting point is 99 to 100 °C. For the same compound, in data set [4], the fold induction at 20 µg/mL stood at 5.2.

Consider `CC[C@@H](CC(F)(F)F)[C@@H](CO)NS(=O)(=O)c1sc2ccc(Cl)cc2c1C` [Example 11, (2S,3S)-2-(5-Chloro-3-methylbenzo[b]thiophene-2-sulfonyl)-amido-5,5,5-trifluoro-3-ethyl-pentan-1-ol], for which, in data set [4], the “RRA data: fold increase of APPI” value is given as 4.2 fold increase.

Turning to `Cc1nn(C)c(Cl)c1S(=O)(=O)N[C@H](CO)[C@H](CC(F)(F)F)c1ccccc1` [Example 12, (2S,3R)-2-(5-Chloro-1,3-dimethyl-1H-pyrazole-4-sulfonyl)-amido-5,5,5-trifluoro-3-phenyl-pentan-1-ol], in data set [4], the “RRA data: fold increase of APPI” value is 1.6 fold increase.

As for `O=S(=O)(NC(CO)C1CCC(F)(F)CC1)c1ccc(Cl)s1` (stereo not shown) [Example 14, 5-Chloro-N-[1-(4,4-difluorocyclohexyl)-2-hydroxyethyl]thiophene-2-sulfonamide], the fold induction at 20 µg/mL in data set [4] stood at 6.2.

Take `O=S(=O)(NC(CO)C1CC2C(C1)C2(F)F)c1ccc(Cl)s1` (stereo not shown) [Example 15, 5-Chloro-N-[1-(6,6-difluorobicyclo[3.1.0]hex-3-yl)-2-hydroxyethyl]thiophene-2-sulfonamide]: the fold induction at 20 µg/mL in data set [4] stood at 4.7.

Consider `C[C@H](CC(F)(F)F)[C@@H](C=O)NS(=O)(=O)c1ccc(Cl)s1` [Example 16, 5-Chloro-N-[(1S,2R)-4,4,4-trifluoro-1-formyl-2-methylbutyl]thiophene-2-sulfonamide], for which, in data set [4], the fold induction at 20 µg/mL came to 3.9.

With `CC(=O)[C@@H](NS(=O)(=O)c1ccc(Cl)s1)[C@H](C)CC(F)(F)F` [Example 17, N-[(1S,2R)-1-Acetyl-4,4,4-trifluoro-2-methylbutyl]-5-chlorothiophene-2-sulfonamide], the fold induction at 20 µg/mL in data set [4] was determined as 3.6.

Regarding `C[C@H](CC(F)(F)F)[C@H](NS(=O)(=O)c1ccc(Cl)s1)C(C)(C)O` [Example 18, 5-Chloro-N-[(1S,2R)-4,4,4-trifluoro-1-(1-hydroxy-1-methylethyl)-2-methylbutyl]thiophene-2-sulfonamide], the fold induction at 20 µg/mL in data set [4] is 2.9.

With `O=S(=O)(NC(CO)CC(F)(F)F)c1ccc(Cl)s1` (stereo not shown) [Example 40, 5-chloro-(3,3,3-trifluoro-1-hydroxymethyl-propyl)-thiophene-2-sulfonamide], the fold induction at 20 µg/mL in data set [4] was determined as 3.8.

As to `C[C@@H](O)[C@@H](NS(=O)(=O)c1ccc(Cl)s1)C(C(F)(F)F)C(F)(F)F` [Example 41, 5-Chloro-N-[(1S)-3,3,3-trifluoro-1-[(1R)-1-hydroxyethyl]-2-(trifluoromethyl)propyl]thiophene-2-sulfonamide], the fold induction at 20 µg/mL in data set [4] came to 6.2.

By melting point is commonly meant the temperature, or range, at which the solid turns liquid. Broadly, the half-life is the time needed for the level to fall by half in the phase considered.
